According to patent publication US11590116B2 (THERAVANCE BIOPHARMA R&D IP, LLC, priority 2019, dated 2023):

Legend:
[1] = tested on: TGF-β-stimulated SMAD3 phosphorylation in BEAS-2B cells; assay: Cellular ALK5 potency assay, inhibition of TGF-β stimulated pSMAD3 formation in BEAS-2B cells; format: cell-based; conditions: Homo sapiens; inhibition of TGF-β stimulated pSMAD3 formation, BEAS-2B cells; read-out: BEAS2B pIC50 (converted)
Summary of the method: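 AlphaLISA pSMAD3 read-out, beads incubated overnight. Human BEAS-2B cells: 1 h compound preincubation (37 °C, 5% CO2), then 30 min TGF-β at 10 ng/mL final, immediate lysis. Values are pIC50 relative to stimulated, compound-free baseline.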

[2] = molecular target: T1, recombinant human ALK5 (TGF-βR1) protein (Homo sapiens, UniProt P36897); assay: Biochemical ALK5 (TGF-βR1) assay to measure pKi (LANCE Ultra ULight kinase assay); conditions: apparent pKi from pIC50 by Cheng-Prusoff, read-out: ALK5 pKi (converted)
T1 construct: purchased Life Technologies PR9075A
T1 sequence (P36897 34-503): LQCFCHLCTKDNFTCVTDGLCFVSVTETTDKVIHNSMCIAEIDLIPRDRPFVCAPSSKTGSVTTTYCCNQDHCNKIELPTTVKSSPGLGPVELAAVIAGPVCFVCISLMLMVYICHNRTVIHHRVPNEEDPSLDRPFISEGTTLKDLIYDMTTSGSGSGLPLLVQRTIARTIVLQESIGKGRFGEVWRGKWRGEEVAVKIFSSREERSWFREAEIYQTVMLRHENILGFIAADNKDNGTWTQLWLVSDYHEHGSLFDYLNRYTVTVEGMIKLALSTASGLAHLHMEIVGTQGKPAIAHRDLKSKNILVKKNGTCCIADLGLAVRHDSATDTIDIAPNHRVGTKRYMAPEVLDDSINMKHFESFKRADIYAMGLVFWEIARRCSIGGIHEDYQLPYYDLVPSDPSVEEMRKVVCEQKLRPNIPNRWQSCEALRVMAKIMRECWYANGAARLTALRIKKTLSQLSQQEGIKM
Summary of the method: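 After a 60 min room-temperature preincubation of ALK5 with compound, phosphorylation proceeds 60 min at 37 °C on ATP addition (125 μM as 5× stock). Detection: Eu-labelled phospho-Thr1342 Topo IIα antibody in EDTA buffer, pH 7.0; emission 665 nm.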

| Compound | IC50 [1] | Ki [2] |
| --- | --- | --- |
| Cc1cccc(-c2[nH]cnc2-c2ccc3ncc(NC(=O)C4CC(N)C4)cc3c2)n1 (stereo not shown) [Compound 3, 3-amino-N-[6-[5-(6-methyl-2-pyridyl)-1H-imidazol-4-yl]-3-quinolyl]cyclobutanecarboxamide] | 200 to 1260 nM | 0.0398 to 0.316 nM |
| Cc1cccc(-c2n[nH]cc2-c2ccc3ncc(-c4nnn5c4NCC5)cc3n2)n1 [Compound 5, 7-(5,6-dihydro-4H-imidazo[1,2-c]triazol-3-yl)-2-[3-(6-methyl-2-pyridyl)-1H-pyrazol-4-yl]-1,5-naphthyridine] | 25.1 to 158 nM | < 0.0316 nM |
| Cc1cccc(-c2[nH]cnc2-c2ccc3ncc(N(C)CC4CNC4)cc3c2)n1 [Compound 6, N-(azetidin-3-ylmethyl)-N-methyl-6-[5-(6-methyl-2-pyridyl)-1H-imidazol-4-yl]quinolin-3-amine] | 25.1 to 158 nM | 0.0398 to 0.316 nM |
| Cc1nc(-c2n[nH]cc2-c2ccc3ncc(-c4[nH]nc5c4CCNC5)cc3n2)ccc1F [Compound 7, 2-[3-(5-fluoro-6-methyl-2-pyridyl)-1H-pyrazol-4-yl]-7-(4,5,6,7-tetrahydro-2H-pyrazolo[3,4-c]pyridin-3-yl)-1,5-naphthyridine] | 200 to 1260 nM | 0.0398 to 0.316 nM |
| Cc1cccc(-c2[nH]cnc2-c2ccc3ncc(C4=C[C@@H](C)N[C@H](C)C4)cc3c2)n1 [Compound 8, 3-[(2R,6R)-2,6-dimethyl-1,2,3,6-tetrahydropyridin-4-yl]-6-[5-(6-methyl-2-pyridyl)-1H-imidazol-4-yl]quinoline] | 25.1 to 158 nM | 0.0398 to 0.316 nM |
| Cc1cccc(-c2n[nH]cc2-c2ccc3ncc(-c4ccnc(C#N)c4)cc3n2)n1 [Compound 9, 4-[6-[3-(6-methyl-2-pyridyl)-1H-pyrazol-4-yl]-1,5-naphthyridin-3-yl]pyridine-2-carbonitrile] | < 20 nM | < 0.0316 nM |
| Cc1cccc(-c2n[nH]cc2-c2ccc3ncc(N4CCC5(CCNC5)C4)cc3n2)n1 (stereo not shown) [Compound 10, 7-(2,7-diazaspiro[4.4]nonan-2-yl)-2-[3-(6-methyl-2-pyridyl)-1H-pyrazol-4-yl]-1,5-naphthyridine] | 200 to 1260 nM | 0.0398 to 0.316 nM |
| Cc1cccc(-c2[nH]cnc2-c2ccc3ncc(NCC4CNC4)cc3c2)n1 [Compound 11, N-(azetidin-3-ylmethyl)-6-[5-(6-methyl-2-pyridyl)-1H-imidazol-4-yl]quinolin-3-amine] | 25.1 to 158 nM | 0.0398 to 0.316 nM |
| Cc1cccc(-c2n[nH]cc2-c2ccc3ncc(-c4cccn(C)c4=O)cc3n2)n1 [Compound 12, 1-methyl-3-[6-[3-(6-methyl-2-pyridyl)-1H-pyrazol-4-yl]-1,5-naphthyridin-3-yl]pyridin-2-one] | < 20 nM | < 0.0316 nM |
| Cc1cccc(-c2[nH]cnc2-c2ccc3ncc(N4CC[C@@H](N)C4)cc3c2)n1 [Compound 13, (3R)-1-[6-[5-(6-methyl-2-pyridyl)-1H-imidazol-4-yl]-3-quinolyl]pyrrolidin-3-amine] | < 20 nM | 0.0398 to 0.316 nM |
| Cc1cccc(-c2[nH]cnc2-c2ccc3ncc(NC4CCC5(CC4)CNC5)cc3c2)n1 [Compound 14, N-(2-azaspiro[3.5]nonan-7-yl)-6-[5-(6-methyl-2-pyridyl)-1H-imidazol-4-yl]quinolin-3-amine] | 200 to 1260 nM | 0.0398 to 0.316 nM |
| Cc1cccc(-c2n[nH]cc2-c2ccc3ncc(C4=CCNCC4)cc3n2)n1 [Compound 15, 2-[3-(6-methyl-2-pyridyl)-1H-pyrazol-4-yl]-7-(1,2,3,6-tetrahydropyridin-4-yl)-1,5-naphthyridine] | < 20 nM | < 0.0316 nM |
| Cc1cccc(-c2[nH]cnc2-c2ccc3ncc(C4=CCN(C)C4)cc3c2)n1 [Compound 16, 3-(1-methyl-2,5-dihydropyrrol-3-yl)-6-[5-(6-methyl-2-pyridyl)-1H-imidazol-4-yl]quinoline] | < 20 nM | < 0.0316 nM |
| CNCCn1cc(-c2cnc3ccc(-c4nc[nH]c4-c4cccc(C)n4)cc3c2)cn1 [Compound 17, N-methyl-2-(4-(6-(5-(6-methylpyridin-2-yl)-1H-imidazol-4-yl)quinolin-3-yl)-1H-pyrazol-1-yl)ethan-1-amine] | 25.1 to 158 nM | < 0.0316 nM |
| CNCCN(C)C1CCN(c2cnc3ccc(-c4c[nH]nc4-c4cccc(C)n4)nc3c2)CC1 [Compound 18, N,N′-dimethyl-N′-[1-[6-[3-(6-methyl-2-pyridyl)-1H-pyrazol-4-yl]-1,5-naphthyridin-3-yl]-4-piperidyl]ethane-1,2-diamine] | 200 to 1260 nM | 0.0398 to 0.316 nM |
| Cc1cccc(-c2n[nH]cc2-c2ccc3ncc(N4CCN(C(C)C)C(C)(C)C4)cc3n2)n1 [Compound 20, 7-(4-isopropyl-3,3-dimethyl-piperazin-1-yl)-2-[3-(6-methyl-2-pyridyl)-1H-pyrazol-4-yl]-1,5-naphthyridine] | 200 to 1260 nM | 3.98 to 31.6 nM |
| Cc1cccc(-c2n[nH]cc2-c2ccc3ncc(C4=CCC(N)CC4)cc3n2)n1 (stereo not shown) [Compound 21, 4-[6-[3-(6-methyl-2-pyridyl)-1H-pyrazol-4-yl]-1,5-naphthyridin-3-yl]cyclohex-3-en-1-amine] | 25.1 to 158 nM | < 0.0316 nM |
| Cc1cccc(-c2n[nH]cc2-c2ccc3ncc(N4CCCCC4)cc3n2)n1 [Compound 22, 2-[3-(6-methyl-2-pyridyl)-1H-pyrazol-4-yl]-7-(1-piperidyl)-1,5-naphthyridine] | 25.1 to 158 nM | 0.0398 to 0.316 nM |
| Cc1cccc(-c2nc3ccccn3c2-c2ccc3ncc(-c4cnc5n4CCN5)cc3n2)n1 [Compound 23, 7-(6,7-dihydro-5H-imidazo[1,2-a]imidazol-3-yl)-2-[2-(6-methyl-2-pyridyl)imidazo[1,2-a]pyridin-3-yl]-1,5-naphthyridine] | 25.1 to 158 nM | < 0.0316 nM |
| Cc1cccc(-c2[nH]cnc2-c2ccc3ncc(N4CCNC(CC(=O)OC(C)C)C4)cc3c2)n1 (stereo not shown) [Compound 24, isopropyl 2-[4-[6-[5-(6-methyl-2-pyridyl)-1H-imidazol-4-yl]-3-quinolyl]piperazin-2-yl]acetate] | 25.1 to 158 nM | 0.0398 to 0.316 nM |
| CC(=O)NC1CC=C(c2cnc3ccc(-c4nc[nH]c4-c4cccc(C)n4)cc3c2)CC1 (stereo not shown) [Compound 26, N-[4-[6-[5-(6-methyl-2-pyridyl)-1H-imidazol-4-yl]-3-quinolyl]cyclohex-3-en-1-yl]acetamide] | < 20 nM | < 0.0316 nM |
| Cc1cccc(-c2nnn(Cc3ccccc3)c2-c2ccc3ncc(-c4cnn(C5CCCNC5)c4)cc3c2)n1 (stereo not shown) [Compound 27, 6-[3-benzyl-5-(6-methyl-2-pyridyl)triazol-4-yl]-3-[1-(3-piperidyl)pyrazol-4-yl]quinoline] | 25.1 to 158 nM | 0.0398 to 0.316 nM |
| Cc1cccc(-c2n[nH]cc2-c2ccc3ncc(N4CC(C)NC(C)C4)cc3n2)n1 (stereo not shown) [Compound 28, 7-(3,5-dimethylpiperazin-1-yl)-2-[3-(6-methyl-2-pyridyl)-1H-pyrazol-4-yl]-1,5-naphthyridine] | 25.1 to 158 nM | < 0.0316 nM |
| CNCCn1cc(-c2cnc3ccc(-c4nn[nH]c4-c4cccc(C)n4)nc3c2)cn1 [Compound 29, N-methyl-2-(4-(6-(5-(6-methylpyridin-2-yl)-1H-1,2,3-triazol-4-yl)-1,5-naphthyridin-3-yl)-1H-pyrazol-1-yl)ethan-1-amine] | 200 to 1260 nM | < 0.0316 nM |
| Cc1cccc(-c2[nH]cnc2-c2ccc3ncc(NCCN4CCCC4)cc3c2)n1 [Compound 30, 6-[5-(6-methyl-2-pyridyl)-1H-imidazol-4-yl]-N-(2-pyrrolidin-1-ylethyl)quinolin-3-amine] | 25.1 to 158 nM | 0.0398 to 0.316 nM |
| Cc1cccc(-c2n[nH]cc2-c2ccc3ncc(NCCN4CCCC4(C)C)cc3n2)n1 [Compound 31, N-[2-(2,2-dimethylpyrrolidin-1-yl)ethyl]-6-[3-(6-methyl-2-pyridyl)-1H-pyrazol-4-yl]-1,5-naphthyridin-3-amine] | 25.1 to 158 nM | < 0.0316 nM |
| Cc1cccc(-c2n[nH]cc2-c2ccc3ncc(-c4nc(CO)co4)cc3n2)n1 [Compound 32, [2-[6-[3-(6-methyl-2-pyridyl)-1H-pyrazol-4-yl]-1,5-naphthyridin-3-yl]oxazol-4-yl]methanol] | 25.1 to 158 nM | < 0.0316 nM |
| COc1[nH]nc(-c2cccc(C)n2)c1-c1ccc2ncc(N3CCNCC3)cc2n1 [Compound 33, 2-(5-methoxy-3-(6-methylpyridin-2-yl)-1H-pyrazol-4-yl)-7-(piperazin-1-yl)-1,5-naphthyridine] | 25.1 to 158 nM | 0.0398 to 0.316 nM |
| Cc1nc(-c2n[nH]cc2-c2ccc3ncc(-c4ccc5c(n4)CCNC5)cc3n2)ccc1F [Compound 34, 2-[3-(5-fluoro-6-methyl-2-pyridyl)-1H-pyrazol-4-yl]-7-(5,6,7,8-tetrahydro-1,6-naphthyridin-2-yl)-1,5-naphthyridine] | 25.1 to 158 nM | < 0.0316 nM |
